What was measured:
[1] = NMR analysis of RAL reactions (Schiff base condensation and ring formation); format: physicochemical; details: Schiff base condensation with RAL, pure chloroform
[2] = test system: light sensitivity of dark adapted rats; experiment: ERG analysis of dark adaptation, dose ranging protocol; format: in vivo, rat; details: i.p.
Method: Dark adaptation is the recovery of visual sensitivity following exposure to light. Dark adaptation has multiple components including both fast (neuronal) processes and slow (photochemical) process. Regeneration of visual pigment is related to the slow photochemical process. Dark adaptation rates are measured for several reasons. Night blindness results from a failure to dark adapt (loss of visual light sensitivity). It is possible to find a safe dose for night vision by measuring drug effects on dark adapted visual light sensitivity.
An electroretinogram (ERG) is used measure dark adaptation under normal vs. drug conditions. ERG is the measurement of the electric field potential emitted by retinal neurons during their response to an experimentally defined light stimulus. More specifically, ERG measures retinal field potentials at the cornea after a flash of light (e.g., 50 ms). Field strengths are 10^2 to 10^3 microvolts, originating in retinal cells.
ERG is a non-invasive measurement which can be performed on either living subjects (human or animal) or a hemisected eye in solution that has been removed surgically from a living animal. […]
The ERG measurement is taken after a specific duration of post-bleach dark recovery (e.g., 30 min) determined previously by kinetic analysis (see FIGS. 6a and 6b). […]

| Compound | tau (minutes) condense [1] [min] | effect on ERG light sensitivity of dark adapted rats ([2]; dose ranging, FIG. 7) | duration of the effect on vision ([2]; rat ERG) |
| --- | --- | --- | --- |
| CC(C)(O)c1nc2ccc(Cl)cc2cc1N [Compound 9] | 320 |  |  |
| CCOC(=O)c1cccc(N)c1 [Compound 6, tricaine methane sulfonate] |  | lowers light sensitivity of dark adapted rats in a dose dependent manner | decreases after 3 hours |
